According to patent publication US20110251188A1, “ACENAPHTHO HETEROCYCLE COMPOUNDS, CYCLODEXTRIN INCLUSION COMPOUNDS AND COMPLEXES, AND USES IN THE MANUFACTURES OF BH3 PROTEIN ANALOGUE, BCL-2 FAMILY PROTEIN INHIBITORS THEREOF” (DALIAN UNIVERSITY OF TECHNOLOGY, priority 2008, published 2011):
≈ marks a conversion by molar mass, not a printed value. Like-named read-outs stand apart in the source and are kept apart here.

Legend:
[1] = target: T1, interaction between Bcl-2 and Bax (Homo sapiens, UniProt P10415); assay: intracellular fluorescence polarization energy transfer (FRET), Hela cells transfected with Bcl-2-CFP and Bax-YFP; format: cell-based; settings: for Time for which the compound interfered with the interaction between Bcl-2 and Bax: goes with the concentration of E11; for Concentration at which the compound interfered with the interaction between Bcl-2 and Bax: goes with the time of E12
T1 construct: expressed in transfected cells; host or cells: Hela cells
Protocol: 24 hours later (please refer to FIG. 2), the cells were washed with PBS for three times. The fluorescence value was detected by GENIOS fluorescence enzyme-labelled meter (TECAN, Swiss). In time-dependent experiment, the transfected cells were inoculated in a 6-well plate, after that, 40 μM of the compound was added thereinto. 3, 6 and 24 hours later (FIG. 3), the fluorescence intensities were detected by plate reader. As for the cell group in which only Bcl-2-CFP plasmid was transfected, the values at 475 nm emission wave length and 433 nm excitation wave length were recorded. As for the cell group in which only Bax-YFP plasmid was transfected, the values at 527 nm emission wave length and 505 nm excitation wave length were recorded. […] The ratio of fluorescence intensity at 527 nm and 475 nm emission wave lengths was FRET. The FRET for the control group in which the plasmid was solely transfected was set as 1.0. […] The cellular vitality was detected by MTT method.
Wherein the concentration and time meant that the detected compound interfered with the interaction between Bcl-2 and Bax at the concentration for the time period.

GST-Bcl-2 protein = target: T2, GST-Bcl-2 protein (Homo sapiens, UniProt P10415); assay: fluorescence polarization assay, competitive binding against FAM-Bid peptide; settings: Table 3; FAM-Bid competition; table does not say whether Bcl-2 or Mcl-1; read-out: Binding constant
T2 construct: fused on or other part: GST tag on Bcl-2
Protocol: A Bid BH3 peptide (amino acids: 79-99: […]) having 21 amino acids was synthesized and marked with 6-carboxyfluorescein N-succinimidyl ester (FAM) as fluorescent tag (FAM-Bid) at the N-terminal. The reaction system used in the competitive binding experiment was GST-Bcl-2 protein (40 nM) or Mcl-1 protein, which was dissolved in the reaction buffer (100 mM K3PO4, pH 7.5; 100 μg/ml bovine γ albumin; 0.02% sodium azide) together with FAM-Bid polypeptide (5 nM). In a 96-well plate, 100 μL of the reaction system was added into each well. Then 1 μL different concentration of 3-thiomorpholinyl-8-oxo-8H-acenaphtho[1,2-b]pyrrole-9-carbonitrile mother solution to be detected dissolved in DMSO was added thereinto until the final concentration met the experimental design requirements. Meanwhile, two control groups were established, one with the reaction system only contains Bcl-2 or Mcl-1 and FAM-Bid (equivalent to 0% inhibition rate), the other with the reaction system only containing FAM-Bid peptide. After 4 hours of incubation, the 96-well plate was detected by enzyme-labelled meter. The fluorescent polarization value (mP) was tested at […]. Ki value was deduced according to calculation formula. The competitive binding constant between the compound and Bcl-2 was 310 nM.

[2] = phase solubility experiment (solubility in water before and after cyclodextrin inclusion or complexation); settings: for solubility: thermodynamic from solid, Solubility of compounds
Bax protein = assay: co-localization between Bax protein and chondriosome, Bax-YFP transfected MCF-7 cells; format: cell-based; settings: for Time for which the compound drove the BAX to shift towards the chondriosome: goes with the concentration of E14; for Concentration at which the compound drove the BAX to shift towards the chondriosome: goes with the time of E15
Protocol: 5 ng of Bax-YFP plasmid was transfected into MCF-7 cells by using calcium phosphate coprecipitation method, 24 hours later, the cells were inoculated in a 6-well plate (0.2×10^6 cells/well), and 10 μM of the compound 3-thiomorpholinyl-8-oxo-8 H-acenaphtho[1,2-b]pyrrole-9-carbonitrile to be detected was added thereinto. 6 hours later, the cells were washed with PBS and hatched away from light with 50 nM Mito Tracker Red CMXRos (chondriosome specific probes; red) for 10 minutes. Then the cells were washed with PBS for three times, and the fluorescent image was scanned with Radiance2000 laser confocal microscopy (Bio-Rad, USA). Meanwhile, dual channel scanning was carried out, one channel was used to scan the green fluorescence of Bax-YFP, and the other channel was used to scan the red fluorescence of the CMXRos probe for indicating the chondriosome. […] When the Bax protein was localized on the chondriosome, the green and red fluorescence was superimposed into orange, as shown in FIG. 4.
Other 8 compounds were detected by the same experimental method as described above. […] Wherein the concentration and time meant that the detected compound simulated the BH3-only protein and driven the BAX to shift towards the chondriosome at the concentration for the time period.

[3] = test system: hepatoma carcinoma cells H22; assay: in vivo tumor model, subcutaneous H22 tumor in Kunming mice; settings: H22 mouse model of Example 25; dose and route not stated at the place
Protocol: The Kunming mice (in China) were randomly divided into groups, with 10 mice in each group. The cultivated hepatoma carcinoma cells H22 were inoculated subcutaneously in the oxter of the mice with 200 μL/mouse. After bearing the cancer cells for five days, the subcutaneous tumor was formed. Then the compound 3-thiomorpholinyl-8-oxo-8H-acenaphtho[1,2-b]pyrrole-9-carbonitrile and γ-cyclodextrin inclusion compound thereof were given by peritoneal injection, and the compound to be detected included by γ-cyclodextrin was given by oral administration. The detection conditions comprise:
Blank control group: the mice were not treated in any manner after the bearing cancer;
Control group (1): the mice were given a peritoneal injection of DMSO solution every other day after the bearing cancer, 10 days in total;
Control group (2): the mice were given a peritoneal injection of cyclodextrin solution every other day after the bearing cancer, 10 days in total;
Experimental group (1): the mice were given a peritoneal injection of DMSO solution equivalent to 0.03 mg/kg BW compound every other day after the bearing cancer, 10 days in total;
Experimental group (2): the mice were given a peritoneal injection of DMSO solution equivalent to 0.3 mg/kg BW compound every other day after the bearing cancer, 10 days in total;
Experimental group (3): the mice were given a peritoneal injection of inclusion compound water solution equivalent to 0.3 mg/kg BW compound every other day after the bearing cancer, 10 days in total;
Experimental group (4): the mice were given an intragastric administration of inclusion compounds water solution equivalent to 0.3 mg/kg BW compound every other day after the bearing cancer, 10 days in total;
During the experimental period, the length-diameter (a) and short diameter (b), which was perpendicular to the length-diameter, of the tumor were detected twice every week. The gross tumor volume was determined according to the formula: ½ab^2. The survival time of the animal was observed. The tumor inhibition rate was calculated by the tumor volume on the fortieth day.

Bcl-2 = assay: Western blotting, inhibition (downregulation) of Bcl-2 in tumor cells, Example 23; format: cell-based; settings: for inhibition against Bcl-2: Western blotting, tumor cells
Protocol: (§1) The interest protein was detected by the corresponding antibody. The expression of the interest protein in the cells was detected by horseradish peroxidase-labeled secondary antibodies in combination with ECL coloration method. […] The concentration of the protein bands in the Western images were carried out semiquantitative analysis and normalization treatment with KODAK Gel Logic 1500 imaging system software.

Mcl-1 = assay: Western blotting, inhibition (downregulation) of Mcl-1 in tumor cells, Example 23; format: cell-based; settings: for inhibition against Mcl-1: Western blotting, tumor cells
Protocol: as §1

MCF-7 cells = assay: cytotoxicity depending on BAX/BAK, MTT, MCF-7 cells with or without BAX/BAK interfering plasmid; format: cell-based
Protocol: 3 ng of BAX/BAK interfering plasmid was transfected into MCF-7 cells by using calcium phosphate coprecipitation method, 24 hours later, the cells were collected. The expressions after the BAX and BAK proteins interfered with RNA was detected by Western, and the cell groups without plasmid transfection were treated similarly and were set as the control group. The transfected cells were inoculated in a 96-well plate (1×10^5 cells/well), the control experiment of the cell group without plasmid transfection was carried out in parallel. The compound 3-thiomorpholinyl-8-oxo-8 H-acenaphtho[1,2-b]pyrrole-9-carbonitrile to be detected was added thereinto according to the concentration gradient designed before the experiment. 48 hours later, the cellular vitality was detected by MTT. The experimental results were shown in FIG. 6, Gossypol as nonspecific BH3 analogue was treated in parallel.

[4] = Table 1, compound per se, before inclusion

T2 sequence (P10415 whole entry, the tested form may be a part): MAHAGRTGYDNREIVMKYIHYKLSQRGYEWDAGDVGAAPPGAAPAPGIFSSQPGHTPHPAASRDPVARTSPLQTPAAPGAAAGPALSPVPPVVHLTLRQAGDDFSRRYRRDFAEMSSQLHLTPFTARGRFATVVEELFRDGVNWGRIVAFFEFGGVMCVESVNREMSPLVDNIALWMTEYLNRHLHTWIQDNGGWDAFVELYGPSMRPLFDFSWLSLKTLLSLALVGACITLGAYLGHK
T1 sequence (P10415 whole entry): as the sequence (P10415 whole entry, the tested form may be a part) above

Molecule: 3-phenoxy-8-oxo-8H-acenaphtho[1,2-b]pyrrole-9-carboxylate
- Time for which the compound interfered with the interaction between Bcl-2 and Bax [1]: 6 h
- Concentration at which the compound interfered with the interaction between Bcl-2 and Bax [1]: 10.0 µM
- Ki (GST-Bcl-2 protein): 0.79 µM

Molecule: N#CC1=C2C(=NC1=O)c1cccc3c(Sc4ccccc4)ccc2c13 [3-phenylthio-8-oxo-8H-acenaphtho[1,2-b]pyrrole-9-carbonitrile]
- solubility [2, 4]: 0.22 µM (≈ 0.0744 µg/mL)

Molecule: Cc1ccc(Oc2ccc3c4c(cccc24)C2=NC(=O)C(C#N)=C23)cc1 [3-(p-methylphenoxy)-8-oxo-8H-acenaphtho[1,2-b]pyrrole-9-carbonitrile]
- solubility [2, 4]: 0.25 µM (≈ 0.0841 µg/mL)

Molecule: COc1ccc(Oc2ccc3c4c(cccc24)C2=NC(=O)C(C#N)=C23)cc1 [3-(4-methoxyphenoxy)-8-oxo-8H-acenaphtho[1,2-b]pyrrole-9-carbonitrile]
- solubility [2, 4]: 0.32 µM (≈ 0.113 µg/mL)

Molecule: N#CC1=C2C(=NC1=O)c1ccc(Oc3ccccc3)c3cccc2c13 [4-phenoxy-8-oxo-8H-acenaphtho[1,2-b]pyrrole-9-carbonitrile]
- Time for which the compound interfered with the interaction between Bcl-2 and Bax [1]: 6 h
- Concentration at which the compound interfered with the interaction between Bcl-2 and Bax [1]: 10.0 µM
- Ki (GST-Bcl-2 protein): 0.89 µM
- Time for which the compound drove the BAX to shift towards the chondriosome (Bax protein): 6 h
- Concentration at which the compound drove the BAX to shift towards the chondriosome (Bax protein): 10.0 µM

Molecule: O=C(O)C1=C2C(=NC1=O)c1cccc3c(Sc4ccc(Br)cc4)ccc2c13 [3-(4-bromophenylthio)-8-oxo-8H-acenaphtho[1,2-b]pyrrole-9-carboxylic acid]
- solubility ([2]; Table 2, compound per se, before complexation): 0.55 µM (≈ 0.24 µg/mL)
- tumor inhibition rate [3]: 45%

Molecule: N#CC1=C2C(=NC1=O)c1c(OCc3cccs3)ccc3cccc2c13 [6-(thienyl-2-methoxy)-8-oxo-8H-acenaphtho[1,2-b]pyrrole-9-carbonitrile]
- Time for which the compound interfered with the interaction between Bcl-2 and Bax [1]: 6 h
- Concentration at which the compound interfered with the interaction between Bcl-2 and Bax [1]: 10.0 µM
- Ki (GST-Bcl-2 protein): 0.56 µM
- Time for which the compound drove the BAX to shift towards the chondriosome (Bax protein): 6 h
- Concentration at which the compound drove the BAX to shift towards the chondriosome (Bax protein): 10.0 µM
- Solubility of compounds [2, 4]: 0.35 µM
- downregulation of Bcl-2 protein, semiquantitative analysis (band concentration, control = 1) (Bcl-2; 2 hours): 0.69
- downregulation of Bcl-2 protein, semiquantitative analysis (band concentration, control = 1) (Bcl-2; 6 hours): 0.40
- inhibition against Bcl-2 (Bcl-2): had the inhibition against Bcl-2 and Mcl-1 proteins
- downregulation of Mcl-1 protein, semiquantitative analysis (band concentration, control = 1) (Mcl-1; 6 hours): 0.99
- downregulation of Mcl-1 protein, semiquantitative analysis (band concentration, control = 1) (Mcl-1; 12 hours): 0.99
- downregulation of Mcl-1 protein, semiquantitative analysis (band concentration, control = 1) (Mcl-1; 18 hours): 0.54
- downregulation of Mcl-1 protein, semiquantitative analysis (band concentration, control = 1) (Mcl-1; 24 hours): 0.33
- inhibition against Mcl-1 (Mcl-1): had the inhibition against Bcl-2 and Mcl-1 proteins
- dependence of cytotoxicity on BAX/BAK (MCF-7 cells; MCF-7 cells, 48 hours, MTT): absolute dependence on BAX/BAK

Molecule: N#CC1=C2C(=NC1=O)c1cccc3c(Sc4ccc(N)cc4)ccc2c13 [3-(4-aminophenylthio)-8-oxo-8H-acenaphtho[1,2-b]pyrrole-9-carbonitrile]
- solubility [2, 4]: 0.25 µM (≈ 0.0884 µg/mL)

Molecule: N#CC1=C2C(=NC1=O)c1cccc3c(C(=O)c4cccc(F)c4)ccc2c13 [3-(3-fluorophenylformyl)-8-oxo-8H-acenaphtho[1,2-b]pyrrole-9-carbonitrile]
- Time for which the compound interfered with the interaction between Bcl-2 and Bax [1]: 6 h
- Concentration at which the compound interfered with the interaction between Bcl-2 and Bax [1]: 10.0 µM
- dependence of cytotoxicity on BAX/BAK (MCF-7 cells): absolute dependence on BAX/BAK

Molecule: CC(C)c1ccc(Oc2ccc3c4c(cccc24)C2=C(C#N)C(=O)N=C23)cc1 [4-(4-isopropylphenoxy)-8-oxo-8H-acenaphtho[1,2-b]pyrrole-9-carbonitrile]
- solubility [2, 4]: 0.12 µM (≈ 0.0437 µg/mL)

Molecule: O=C(O)C1=C2C(=NC1=O)c1cccc3c(Oc4ccccc4)ccc2c13 [3-phenoxy-8-oxo-8H-acenaphtho[1,2-b]pyrrole-9-carboxylic acid]
- Time for which the compound drove the BAX to shift towards the chondriosome (Bax protein): 6 h
- Concentration at which the compound drove the BAX to shift towards the chondriosome (Bax protein): 10.0 µM
- dependence of cytotoxicity on BAX/BAK (MCF-7 cells): absolute dependence on BAX/BAK

Molecule: CC(C)(C)NC(=O)C1=C2C(=NC1=O)c1cccc3c(Oc4ccccc4)ccc2c13 [3-phenoxy-8-oxo-8H-acenaphtho[1,2-b]pyrrole-9-N-tert-butylamide]
- downregulation of Bcl-2 protein, semiquantitative analysis (band concentration, control = 1) (Bcl-2; 2 hours): 0.80
- downregulation of Bcl-2 protein, semiquantitative analysis (band concentration, control = 1) (Bcl-2; 6 hours): 0.56
- inhibition against Bcl-2 (Bcl-2): had the inhibition against Bcl-2 and Mcl-1 proteins
- downregulation of Mcl-1 protein, semiquantitative analysis (band concentration, control = 1) (Mcl-1; 6 hours): 0.99
- downregulation of Mcl-1 protein, semiquantitative analysis (band concentration, control = 1) (Mcl-1; 12 hours): 0.99
- downregulation of Mcl-1 protein, semiquantitative analysis (band concentration, control = 1) (Mcl-1; 18 hours): 0.78
- downregulation of Mcl-1 protein, semiquantitative analysis (band concentration, control = 1) (Mcl-1; 24 hours): 0.51
- inhibition against Mcl-1 (Mcl-1): had the inhibition against Bcl-2 and Mcl-1 proteins

Molecule: NC(=O)C1=C2C(=NC1=O)c1cccc3c(N4CCSCC4)ccc2c13 [3-thiomorpholinyl-8-oxo-8H-acenaphtho[1,2-b]pyrrole-9-carboxamide]
- tumor inhibition rate [3]: 45%

Molecule: N#CC1=C2C(=NC1=O)c1cccc3c(OC4CCOCC4)ccc2c13 [3-(tetrahydro-2H-pyranyl-4-oxo)-8-oxo-8H-acenaphtho[1,2-b]pyrrole-9-carbonitrile]
- Ki (GST-Bcl-2 protein): 0.6 µM
